# Values quoted from earlier work in patent US20240148709A1, “METHODS OF TREATING EYE PAIN AND EYE DISORDERS” (Aisa Pharma, Inc., priority 2022, published 2024).
# Details: oral dosing; cited from earlier work
smiles,measurement,value
CCOC(=O)C1=C(COCCN)NC(C)=C(C(=O)OC)C1c1ccccc1Cl (stereo not shown) [amlodipine],time to achieve maximal plasma concentration (Tmax),10 h
